Measured values as given in US20250032457A1, “METHODS OF TREATING ANDROGENIC ALOPECIA AND/OR SKIN CONDITIONS” (priority 2020, published 2025).

System: scalp of a human subject (hairline recession, hair loss and thinning)
Experiment: Topical administration to the scalp of a human subject with hairline recession, hair loss and thinning
Conditions: 2% miconazole nitrate formulation, twice per day, observed after 3 months, one human subject, FIG. 2 vs FIG. 1
From the text: Hairline recession, hair thinning, and hair loss were observed prior to administration.

Clc1ccc(COC(Cn2ccnc2)c2ccc(Cl)cc2Cl)c(Cl)c1 (centres unmarked) [miconazole]
hairline recession (topical on scalp): reversal of hairline recession | hair growth on the scalp: promotion of hair growth elsewhere on the scalp
